Where two headings read alike, the source gives them in different places. Values belong to the compound of their own block, whether it stands above or below them.
Experiments:
monkey liver acylamidase = experiment: Susceptibility to monkey liver acylamidase (crude liver extract, 5'-DFCR formed by HPLC); assay type: in vitro ADME; settings: tetrahydrouridine 0.4 mM, 37° C., 60 min
Protocol: (§1) The N^4 -(substituted-oxycarbonyl)-5'-DFCRs of the invention were incubated with crude extracts of monkey and human liver in the presence of an inhibitor of cytidine deaminase, tetrahydrouridine (0.4 mM) at 37° C. for 60 min. Thereafter, the product 5'-DFCR was separated by HPLC and the enzyme susceptibility was calculated from the amount of the product.

human liver acylamidase = experiment: Susceptibility to human liver acylamidase (crude liver extract, 5'-DFCR formed by HPLC); assay type: in vitro ADME; settings: tetrahydrouridine 0.4 mM, 37° C., 60 min
Protocol: as §1

[1] = Pharmacokinetic profiles in monkeys (plasma 5'-DFUR after oral administration); assay type: in vivo; settings: cynomolgous monkeys, metabolite 5'-DFUR in plasma
Protocol: The compounds of formula (I) were orally administered into groups of 2 to 5 cynomolgous monkeys (3-4 kg). At various times after the administration, plasma was taken for determination of blood concentrations of intact molecules and their active metabolite 5'-DFUR. Metabolites in the plasma were separated by HPLC and their concentrations were calculated.

[2] = test system: CXF280 Human Colon Carcinoma; experiment: Antitumor testing against human colon cancer xenograft CXF280; assay type: in vivo, BALB/c nu/nu mice; set-up: key to Fecal observation: N: normal feces; L: loose passage; key to % Growth inhibition: NE: Not Effective; settings: for inhibition in vivo at 1 mmol/kg/day: Exp. 1, 1.0 mmol/kg/day x 21, oral
Protocol: CXF280 tumor (about 2×2 mm piece) was implanted subcutaneously into BALB/c nu/nu mice (21-22 g) on day 0. When tumor volume became 100 mm^3 on day around 14, the compounds of the invention were orally administered daily for 3 weeks. At one day after the last treatment, tumor volume was calculated.
The percent inhibition of tumor growth given in Table 3 above was calculated from the formula:
% Inhibition ={1-(T-V0)/(C-V0)}×100
V0 =volume of tumor before treatment was started, T=volume of the tumors from the treated group, C=volume of the tumor from the control group.

[3] = Toxicity (LD50), oral administration daily for 21 days in mice; settings: mouse, in vivo
Protocol: The toxicity (LD50) of the representative compounds (Example 13,14, and 17) of the present invention was examined by oral administration daily for 21 days in mice. The representative LD50 values obtained from the experiments were more than 500 mg/kg/day.

[4] = Exp. 2, 1.5 mmol/kg/day x 21, oral
[5] = Exp. 2, 2.25 mmol/kg/day x 21, oral
[6] = Mus musculus, po, Exp. 2, 0.13 mmol/kg/day x 21, oral, read-out: % Growth inhibition
[7] = Mus musculus, po, Exp. 2, 0.3 mmol/kg/day x 21, oral, read-out: % Growth inhibition
[8] = Mus musculus, po, Exp. 2, 0.67 mmol/kg/day x 21, oral, read-out: % Growth inhibition
[9] = Mus musculus, po, Exp. 2, 1.5 mmol/kg/day x 21, oral, read-out: % Growth inhibition
[10] = Mus musculus, po, Exp. 2, 2.25 mmol/kg/day x 21, oral, read-out: % Growth inhibition
[11] = Exp. 2, 0.089 mmol/kg/day x 21, oral
[12] = Mus musculus, po, Exp. 1, 0.13 mmol/kg/day x 21, oral, read-out: % Growth inhibition
[13] = Exp. 1, 1.5 mmol/kg/day x 21, oral
[14] = Mus musculus, po, Exp. 1, 0.3 mmol/kg/day x 21, oral, read-out: % Growth inhibition
[15] = Mus musculus, po, Exp. 1, 0.67 mmol/kg/day x 21, oral, read-out: % Growth inhibition
[16] = Mus musculus, po, read-out: % Growth inhibition
[17] = Mus musculus, po, Exp. 1, 1.5 mmol/kg/day x 21, oral, read-out: % Growth inhibition

- Acylamidase activity, Monkey Liver (monkey liver acylamidase): 43 nmol/mg protein/hr
- Acylamidase activity, Human Liver (human liver acylamidase): 110 nmol/mg protein/hr
Structure (SMILES): C[C@H]1O[C@@H](n2cc(F)c(NC(=O)OCCCc3ccccc3)nc2=O)[C@H](O)[C@@H]1O [Example 22, 5'-deoxy-5-fluoro-N^4-[(3-phenylpropyl)oxycarbonyl]cytidine]

- Acylamidase activity, Monkey Liver (monkey liver acylamidase): 59 nmol/mg protein/hr
- Acylamidase activity, Human Liver (human liver acylamidase): 110 nmol/mg protein/hr
Structure (SMILES): CCCCCCCOC(=O)Nc1nc(=O)n([C@@H]2O[C@H](C)[C@@H](O)[C@H]2O)cc1F [Example 27, 5'-deoxy-5-fluoro-N^4-(heptyloxycarbonyl)cytidine]
- Fecal observation [2, 4]: N
- Fecal observation [2, 5]: N
- inhibition in vivo at 0.13 mmol/kg/day [2, 6]: 26%
- inhibition in vivo at 0.3 mmol/kg/day [2, 7]: 72%
- inhibition in vivo at 0.67 mmol/kg/day [2, 8]: 84%
- inhibition in vivo at 1.5 mmol/kg/day [2, 9]: 94%
- inhibition in vivo at 2.25 mmol/kg/day [2, 10]: 103%

- Acylamidase activity, Monkey Liver (monkey liver acylamidase): 20 nmol/mg protein/hr
- Acylamidase activity, Human Liver (human liver acylamidase): 560 nmol/mg protein/hr
Structure (SMILES): CCCCC(CC)COC(=O)Nc1nc(=O)n([C@@H]2O[C@H](C)[C@@H](O)[C@H]2O)cc1F (stereo partly shown) [Example 26, 5'-deoxy-N^4-[(2-ethylhexyl)oxycarbonyl]-5-fluorocytidine]

- Acylamidase activity, Monkey Liver (monkey liver acylamidase): < 13 nmol/mg protein/hr
- Acylamidase activity, Human Liver (human liver acylamidase): 160 nmol/mg protein/hr
Structure (SMILES): CCCC(CCC)COC(=O)Nc1nc(=O)n([C@@H]2O[C@H](C)[C@@H](O)[C@H]2O)cc1F [Example 25, 5'-deoxy-5-fluoro-N^4-[(2-propylpentyl)oxycarbonyl]cytidine]

- Acylamidase activity, Monkey Liver (monkey liver acylamidase): 29 nmol/mg protein/hr
- Acylamidase activity, Human Liver (human liver acylamidase): 190 nmol/mg protein/hr
- Plasma 5'-DFUR AUC [1]: 2900 ng·h/mL
Structure (SMILES): CCCCCOC(=O)Nc1nc(=O)n([C@@H]2O[C@H](C)[C@@H](O)[C@H]2O)cc1F [Example 12, 5'-deoxy-5-fluoro-N^4-(pentyloxycarbonyl)cytidine]
- Fecal observation [2, 13]: N
- inhibition in vivo at 0.13 mmol/kg/day [2, 12]: 68%
- inhibition in vivo at 0.3 mmol/kg/day [2, 14]: 69%
- inhibition in vivo at 0.67 mmol/kg/day [2, 15]: 86%
- inhibition in vivo at 1 mmol/kg/day [2, 16]: 86%
- inhibition in vivo at 1.5 mmol/kg/day [2, 17]: 96%

- Acylamidase activity, Monkey Liver (monkey liver acylamidase): 25 nmol/mg protein/hr
- Acylamidase activity, Human Liver (human liver acylamidase): 52 nmol/mg protein/hr
- Plasma 5'-DFUR AUC [1]: 1400 ng·h/mL
Structure (SMILES): C[C@H]1O[C@@H](n2cc(F)c(NC(=O)OCC(C)(C)C)nc2=O)[C@H](O)[C@@H]1O [Example 28, 5'-deoxy-5-fluoro-N^4-(neopentyloxycarbonyl)cytidine]

- Acylamidase activity, Monkey Liver (monkey liver acylamidase): 26 nmol/mg protein/hr
- Acylamidase activity, Human Liver (human liver acylamidase): 82 nmol/mg protein/hr
Structure (SMILES): C[C@H]1O[C@@H](n2cc(F)c(NC(=O)OCCCC3CCCCC3)nc2=O)[C@H](O)[C@@H]1O [Example 21, N^4-[(3-cyclohexylpropyl)oxycarbonyl]-5'-deoxy-5-fluorocytidine]

- Acylamidase activity, Monkey Liver (monkey liver acylamidase): 19 nmol/mg protein/hr
- Acylamidase activity, Human Liver (human liver acylamidase): 320 nmol/mg protein/hr
Structure (SMILES): C[C@H]1O[C@@H](n2cc(F)c(NC(=O)OCCC3CCCCC3)nc2=O)[C@H](O)[C@@H]1O [Example 20, N^4-[(2-cyclohexylethoxy)carbonyl]-5'-deoxy-5-fluorocytidine]

- Acylamidase activity, Monkey Liver (monkey liver acylamidase): 33 nmol/mg protein/hr
- Acylamidase activity, Human Liver (human liver acylamidase): 210 nmol/mg protein/hr
- Plasma 5'-DFUR AUC [1]: 2520 ng·h/mL
Structure (SMILES): C[C@H]1O[C@@H](n2cc(F)c(NC(=O)OCC3CCCCC3)nc2=O)[C@H](O)[C@@H]1O [Example 16, N^4-[(cyclohexylmethoxy)carbonyl]-5'-deoxy-5-fluorocytidine]

The remaining lines, values behind:

Structure (SMILES): CCC(CC)COC(=O)Nc1nc(=O)n([C@@H]2O[C@H](C)[C@@H](O)[C@H]2O)cc1F [Example 15, 5'-deoxy-N^4-[(2-ethylbutoxy)carbonyl]-5-fluorocytidine]
- Acylamidase activity, Monkey Liver (monkey liver acylamidase): 23 nmol/mg protein/hr
- Acylamidase activity, Human Liver (human liver acylamidase): 210 nmol/mg protein/hr
- Plasma 5'-DFUR AUC [1]: 2890 ng·h/mL

Structure (SMILES): O=c1[nH]cc(F)c(=O)[nH]1 [Example 5-FU, 5-fluorouracil, reference compound]
- Fecal observation ([2]; Exp. 1, 0.089 mmol/kg/day x 21, oral): N
- Fecal observation ([2]; Exp. 1, 0.13 mmol/kg/day x 21, oral): N
- Fecal observation ([2]; Exp. 1, 0.2 mmol/kg/day x 21, oral): L
- % Growth inhibition [2, 11]: NE
- Fecal observation [2, 11]: N
- Fecal observation ([2]; Exp. 2, 0.13 mmol/kg/day x 21, oral): N
- Fecal observation ([2]; Exp. 2, 0.2 mmol/kg/day x 21, oral): L
- inhibition in vivo at 0.089 mmol/kg/day ([2]; Mus musculus, po, Exp. 1, 0.089 mmol/kg/day x 21, oral, read-out: % Growth inhibition): 28%
- inhibition in vivo at 0.13 mmol/kg/day [2, 12]: 59%
- inhibition in vivo at 0.2 mmol/kg/day ([2]; Mus musculus, po, Exp. 1, 0.2 mmol/kg/day x 21, oral, read-out: % Growth inhibition): 79%
- inhibition in vivo at 0.13 mmol/kg/day [2, 6]: 20%
- inhibition in vivo at 0.2 mmol/kg/day ([2]; Mus musculus, po, Exp. 2, 0.2 mmol/kg/day x 21, oral, read-out: % Growth inhibition): 58%

Structure (SMILES): CCCCOC(=O)Nc1nc(=O)n([C@@H]2O[C@H](C)[C@@H](O)[C@H]2O)cc1F [Example 11, N^4-(butoxycarbonyl)-5'-deoxy-5-fluorocytidine]
- Fecal observation [2, 5]: N
- inhibition in vivo at 0.13 mmol/kg/day [2, 6]: 46%
- inhibition in vivo at 0.3 mmol/kg/day [2, 7]: 72%
- inhibition in vivo at 0.67 mmol/kg/day [2, 8]: 84%
- inhibition in vivo at 1.5 mmol/kg/day [2, 9]: 95%
- inhibition in vivo at 2.25 mmol/kg/day [2, 10]: 100%
- Acylamidase activity, Monkey Liver (monkey liver acylamidase): 20 nmol/mg protein/hr
- Acylamidase activity, Human Liver (human liver acylamidase): 71 nmol/mg protein/hr
- Plasma 5'-DFUR AUC [1]: 2060 ng·h/mL

Structure (SMILES): CC(C)COC(=O)Nc1nc(=O)n([C@@H]2O[C@H](C)[C@@H](O)[C@H]2O)cc1F [Example 24, 5'-deoxy-5-fluoro-N^4-(isobutoxycarbonyl)cytidine]
- Fecal observation [2, 13]: N
- inhibition in vivo at 0.13 mmol/kg/day [2, 12]: 37%
- inhibition in vivo at 0.3 mmol/kg/day [2, 14]: 64%
- inhibition in vivo at 0.67 mmol/kg/day [2, 15]: 75%
- inhibition in vivo at 1 mmol/kg/day [2, 16]: 83%
- inhibition in vivo at 1.5 mmol/kg/day [2, 17]: 89%
- Acylamidase activity, Monkey Liver (monkey liver acylamidase): 18 nmol/mg protein/hr
- Acylamidase activity, Human Liver (human liver acylamidase): 64 nmol/mg protein/hr

Structure (SMILES): C[C@H]1O[C@@H](n2cc(F)c(NC(=O)OCCc3ccccc3)nc2=O)[C@H](O)[C@@H]1O [Example 17, 5'-deoxy-5-fluoro-N^4-[(2-phenylethoxy)carbonyl]cytidine]
- Acylamidase activity, Monkey Liver (monkey liver acylamidase): 22 nmol/mg protein/hr
- Acylamidase activity, Human Liver (human liver acylamidase): 160 nmol/mg protein/hr
- LD50 at 504 h [3]: > 500 mg/kg
- Plasma 5'-DFUR AUC [1]: 2660 ng·h/mL

Structure (SMILES): C[C@H]1O[C@@H](n2cc(F)c(NC(=O)OCCC(C)(C)C)nc2=O)[C@H](O)[C@@H]1O [Example 29, 5'-Deoxy-N^4-[(3,3-dimethylbutoxy)carbonyl]-5-fluorocytidine]
- Acylamidase activity, Monkey Liver (monkey liver acylamidase): 22 nmol/mg protein/hr
- Acylamidase activity, Human Liver (human liver acylamidase): 50 nmol/mg protein/hr
- Plasma 5'-DFUR AUC [1]: 2090 ng·h/mL

Structure (SMILES): CC(C)CCOC(=O)Nc1nc(=O)n([C@@H]2O[C@H](C)[C@@H](O)[C@H]2O)cc1F [Example 14, 5'-deoxy-5-fluoro-N^4-(isopentyloxycarbonyl)cytidine]
- Fecal observation [2, 4]: N
- Fecal observation [2, 5]: N
- inhibition in vivo at 0.13 mmol/kg/day [2, 6]: 68%
- inhibition in vivo at 0.3 mmol/kg/day [2, 7]: 68%
- inhibition in vivo at 0.67 mmol/kg/day [2, 8]: 85%
- inhibition in vivo at 1.5 mmol/kg/day [2, 9]: 94%
- inhibition in vivo at 2.25 mmol/kg/day [2, 10]: 100%
- Acylamidase activity, Monkey Liver (monkey liver acylamidase): 32 nmol/mg protein/hr
- Acylamidase activity, Human Liver (human liver acylamidase): 74 nmol/mg protein/hr
- LD50 at 504 h [3]: > 500 mg/kg
- Plasma 5'-DFUR AUC [1]: 2400 ng·h/mL

Structure (SMILES): CCCOC(=O)Nc1nc(=O)n([C@@H]2O[C@H](C)[C@@H](O)[C@H]2O)cc1F [Example 10, 5'-deoxy-5-fluoro-N^4-(propoxycarbonyl)cytidine]
- Fecal observation [2, 5]: N
- inhibition in vivo at 0.13 mmol/kg/day [2, 6]: 39%
- inhibition in vivo at 0.3 mmol/kg/day [2, 7]: 56%
- inhibition in vivo at 0.67 mmol/kg/day [2, 8]: 75%
- inhibition in vivo at 1.5 mmol/kg/day [2, 9]: 86%
- inhibition in vivo at 2.25 mmol/kg/day [2, 10]: 93%
- Plasma 5'-DFUR AUC [1]: 2030 ng·h/mL

— patent publication US5472949A, “N^4 -(substituted-oxycarbonyl)-5'-deoxy-5-fluorocytidine compounds, compositions and methods of using same” (Hoffmann-La Roche Inc., priority 1992, dated 1995)
